Assay [1] deals with T1, Dual specificity tyrosine-phosphorylation-regulated kinase 2 (Homo sapiens, UniProt Q92630).
T1 sequence (Q92630 whole entry): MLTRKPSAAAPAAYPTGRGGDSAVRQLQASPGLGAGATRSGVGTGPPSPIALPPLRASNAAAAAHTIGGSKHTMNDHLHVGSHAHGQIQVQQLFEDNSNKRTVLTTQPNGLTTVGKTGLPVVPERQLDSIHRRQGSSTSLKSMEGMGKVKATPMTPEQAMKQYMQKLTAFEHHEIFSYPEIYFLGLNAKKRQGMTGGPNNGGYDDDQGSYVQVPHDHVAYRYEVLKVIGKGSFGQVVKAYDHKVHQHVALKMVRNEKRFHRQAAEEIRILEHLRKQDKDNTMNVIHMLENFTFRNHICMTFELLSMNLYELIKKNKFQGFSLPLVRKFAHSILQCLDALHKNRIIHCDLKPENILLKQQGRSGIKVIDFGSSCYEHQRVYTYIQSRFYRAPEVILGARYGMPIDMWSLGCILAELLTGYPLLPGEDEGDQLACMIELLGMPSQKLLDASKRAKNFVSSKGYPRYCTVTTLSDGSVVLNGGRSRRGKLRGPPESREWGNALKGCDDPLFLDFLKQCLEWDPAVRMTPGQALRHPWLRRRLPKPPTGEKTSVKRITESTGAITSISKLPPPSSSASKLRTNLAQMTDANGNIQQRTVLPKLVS

Assay [2] concerns the target Dual specificity protein kinase CLK2 (Homo sapiens, UniProt P49760).
The target of assay [3] is Dual specificity protein kinase CLK1 (Homo sapiens, UniProt P49759). It counts as cell-based, Sf9.
Chain of Dual specificity protein kinase CLK1 (P49759 whole entry, canonical isoform): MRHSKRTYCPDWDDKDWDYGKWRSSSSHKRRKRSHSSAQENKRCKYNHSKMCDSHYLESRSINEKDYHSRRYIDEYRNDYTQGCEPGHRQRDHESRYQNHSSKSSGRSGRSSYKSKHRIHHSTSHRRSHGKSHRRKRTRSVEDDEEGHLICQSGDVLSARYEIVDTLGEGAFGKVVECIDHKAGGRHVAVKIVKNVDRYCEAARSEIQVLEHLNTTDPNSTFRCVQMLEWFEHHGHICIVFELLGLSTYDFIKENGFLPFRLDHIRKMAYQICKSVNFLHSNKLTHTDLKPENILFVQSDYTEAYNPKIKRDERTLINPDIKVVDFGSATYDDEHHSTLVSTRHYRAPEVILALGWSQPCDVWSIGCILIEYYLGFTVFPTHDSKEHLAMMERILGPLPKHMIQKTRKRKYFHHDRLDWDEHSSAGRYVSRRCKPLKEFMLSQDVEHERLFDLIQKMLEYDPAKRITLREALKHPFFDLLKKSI
Assay [4] has as its target Casein kinase I isoform epsilon (Homo sapiens, UniProt P49674).
Assay [5] concerns the target T2, Dual specificity tyrosine-phosphorylation-regulated kinase 4 (Homo sapiens, UniProt Q9NR20).
T2 sequence (Q9NR20 whole entry): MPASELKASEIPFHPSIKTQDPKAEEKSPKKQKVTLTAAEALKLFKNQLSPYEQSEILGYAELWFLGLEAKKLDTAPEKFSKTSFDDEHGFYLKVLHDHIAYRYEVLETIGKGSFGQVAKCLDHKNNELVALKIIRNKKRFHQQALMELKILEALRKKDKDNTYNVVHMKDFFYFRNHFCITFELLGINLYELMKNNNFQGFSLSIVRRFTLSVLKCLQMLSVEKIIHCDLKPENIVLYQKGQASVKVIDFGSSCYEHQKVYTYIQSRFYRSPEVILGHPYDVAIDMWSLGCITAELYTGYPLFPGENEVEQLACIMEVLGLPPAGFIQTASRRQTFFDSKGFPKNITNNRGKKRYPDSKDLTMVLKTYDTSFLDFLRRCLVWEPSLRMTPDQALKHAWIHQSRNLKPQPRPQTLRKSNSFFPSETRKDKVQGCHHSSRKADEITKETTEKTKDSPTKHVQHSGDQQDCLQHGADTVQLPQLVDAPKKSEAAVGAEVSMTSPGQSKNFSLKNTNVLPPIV

Assay [6] has as its target Dual specificity protein kinase CLK3 (Homo sapiens, UniProt P49761). The class given is cell-based, Sf9.
The target in assay [7] is Glycogen synthase kinase-3 beta (Homo sapiens, UniProt P49841). The class given is cell-based, Sf9.
Chain of Glycogen synthase kinase-3 beta (P49841 whole entry): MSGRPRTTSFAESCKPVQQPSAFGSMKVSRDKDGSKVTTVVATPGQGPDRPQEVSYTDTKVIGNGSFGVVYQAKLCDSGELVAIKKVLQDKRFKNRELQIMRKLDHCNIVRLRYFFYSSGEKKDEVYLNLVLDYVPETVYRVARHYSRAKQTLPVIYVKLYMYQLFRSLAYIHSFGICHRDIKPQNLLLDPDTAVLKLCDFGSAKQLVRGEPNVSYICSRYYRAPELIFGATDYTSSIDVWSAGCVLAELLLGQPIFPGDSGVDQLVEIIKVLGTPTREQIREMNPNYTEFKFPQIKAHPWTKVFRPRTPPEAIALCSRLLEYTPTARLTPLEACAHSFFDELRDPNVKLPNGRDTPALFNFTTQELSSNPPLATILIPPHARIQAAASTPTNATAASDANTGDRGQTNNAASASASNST
Assay [8] deals with Cyclin-dependent kinase 5/CDK5 activator 1 (Homo sapiens, UniProt Q00535). The class given is cell-based, Sf9.
Chain of Cyclin-dependent kinase 5/CDK5 activator 1 (Q00535 whole entry): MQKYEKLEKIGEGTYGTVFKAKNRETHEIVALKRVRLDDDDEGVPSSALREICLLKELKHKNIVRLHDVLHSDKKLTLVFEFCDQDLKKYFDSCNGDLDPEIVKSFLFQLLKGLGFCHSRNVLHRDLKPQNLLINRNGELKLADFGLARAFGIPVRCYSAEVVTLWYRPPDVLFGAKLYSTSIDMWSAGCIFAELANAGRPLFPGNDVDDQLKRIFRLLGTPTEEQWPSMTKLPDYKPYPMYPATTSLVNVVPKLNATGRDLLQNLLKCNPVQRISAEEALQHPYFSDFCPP
Chain of Cyclin-dependent kinase 5/CDK5 activator 1 (Q15078 whole entry, further chain): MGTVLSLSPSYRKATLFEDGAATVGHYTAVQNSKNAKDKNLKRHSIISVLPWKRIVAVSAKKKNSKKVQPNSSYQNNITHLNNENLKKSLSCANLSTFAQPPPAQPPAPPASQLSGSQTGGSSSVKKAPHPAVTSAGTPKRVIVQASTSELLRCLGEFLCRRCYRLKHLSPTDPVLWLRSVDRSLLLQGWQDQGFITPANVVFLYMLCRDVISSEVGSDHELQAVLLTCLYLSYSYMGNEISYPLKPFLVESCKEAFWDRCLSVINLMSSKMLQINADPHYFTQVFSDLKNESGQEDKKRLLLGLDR
The target in assay [9] is T3, Dual specificity tyrosine-phosphorylation-regulated kinase 3 (Homo sapiens, UniProt O43781).
T3 sequence (O43781 whole entry): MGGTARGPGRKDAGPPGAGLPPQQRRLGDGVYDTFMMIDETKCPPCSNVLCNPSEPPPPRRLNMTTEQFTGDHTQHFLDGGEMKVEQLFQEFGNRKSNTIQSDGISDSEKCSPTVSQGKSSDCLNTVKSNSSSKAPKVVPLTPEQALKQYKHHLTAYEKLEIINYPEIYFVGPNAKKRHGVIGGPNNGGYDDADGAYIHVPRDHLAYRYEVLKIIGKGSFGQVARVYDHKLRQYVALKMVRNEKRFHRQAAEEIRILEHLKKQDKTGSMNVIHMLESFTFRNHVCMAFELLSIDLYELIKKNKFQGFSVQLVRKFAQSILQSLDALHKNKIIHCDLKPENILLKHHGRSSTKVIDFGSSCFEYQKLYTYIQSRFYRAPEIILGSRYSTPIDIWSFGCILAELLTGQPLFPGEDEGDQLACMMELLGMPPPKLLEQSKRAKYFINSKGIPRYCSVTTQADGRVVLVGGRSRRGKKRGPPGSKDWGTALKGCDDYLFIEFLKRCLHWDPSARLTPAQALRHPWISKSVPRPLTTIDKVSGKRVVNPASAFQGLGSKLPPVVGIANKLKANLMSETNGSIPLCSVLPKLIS

Assay [10] has as its target Dual specificity protein kinase CLK4 (Homo sapiens, UniProt Q9HAZ1).

SMILES strings stand for the structures. Where only a bound is given, the exact number is not on record here.

This passage reports IC50 results from ChEMBL document CHEMBL5360622, “Leucettinibs, a Class of DYRK/CLK Kinase Inhibitors Inspired by the Marine Sponge Natural Product Leucettamine B” (J Med Chem, 2023).

Chain of Casein kinase I isoform epsilon (P49674 whole entry, canonical isoform): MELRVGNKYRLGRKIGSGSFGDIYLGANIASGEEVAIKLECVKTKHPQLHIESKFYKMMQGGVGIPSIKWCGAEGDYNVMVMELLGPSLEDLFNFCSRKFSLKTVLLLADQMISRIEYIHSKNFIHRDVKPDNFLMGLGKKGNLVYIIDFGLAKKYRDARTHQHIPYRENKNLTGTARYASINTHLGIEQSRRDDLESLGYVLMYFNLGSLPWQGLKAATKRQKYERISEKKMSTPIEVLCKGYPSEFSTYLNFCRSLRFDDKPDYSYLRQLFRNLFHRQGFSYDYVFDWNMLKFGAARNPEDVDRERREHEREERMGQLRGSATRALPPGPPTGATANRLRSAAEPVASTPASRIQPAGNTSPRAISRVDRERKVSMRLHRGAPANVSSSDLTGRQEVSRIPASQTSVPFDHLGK
Chain of Dual specificity protein kinase CLK3 (P49761 whole entry): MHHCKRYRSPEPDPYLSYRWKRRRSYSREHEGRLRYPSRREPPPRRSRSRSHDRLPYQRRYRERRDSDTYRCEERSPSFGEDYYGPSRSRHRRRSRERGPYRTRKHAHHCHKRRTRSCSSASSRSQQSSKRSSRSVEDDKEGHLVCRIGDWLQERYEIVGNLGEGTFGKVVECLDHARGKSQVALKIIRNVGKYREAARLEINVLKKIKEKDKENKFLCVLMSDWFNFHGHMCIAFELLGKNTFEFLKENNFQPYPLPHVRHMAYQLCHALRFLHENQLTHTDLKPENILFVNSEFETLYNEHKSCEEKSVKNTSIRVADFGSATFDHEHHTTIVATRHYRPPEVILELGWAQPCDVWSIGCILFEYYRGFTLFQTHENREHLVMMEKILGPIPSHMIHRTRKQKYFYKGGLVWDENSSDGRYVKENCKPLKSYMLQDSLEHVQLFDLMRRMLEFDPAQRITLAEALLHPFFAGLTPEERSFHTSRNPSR
Chain of Dual specificity protein kinase CLK2 (P49760 whole entry): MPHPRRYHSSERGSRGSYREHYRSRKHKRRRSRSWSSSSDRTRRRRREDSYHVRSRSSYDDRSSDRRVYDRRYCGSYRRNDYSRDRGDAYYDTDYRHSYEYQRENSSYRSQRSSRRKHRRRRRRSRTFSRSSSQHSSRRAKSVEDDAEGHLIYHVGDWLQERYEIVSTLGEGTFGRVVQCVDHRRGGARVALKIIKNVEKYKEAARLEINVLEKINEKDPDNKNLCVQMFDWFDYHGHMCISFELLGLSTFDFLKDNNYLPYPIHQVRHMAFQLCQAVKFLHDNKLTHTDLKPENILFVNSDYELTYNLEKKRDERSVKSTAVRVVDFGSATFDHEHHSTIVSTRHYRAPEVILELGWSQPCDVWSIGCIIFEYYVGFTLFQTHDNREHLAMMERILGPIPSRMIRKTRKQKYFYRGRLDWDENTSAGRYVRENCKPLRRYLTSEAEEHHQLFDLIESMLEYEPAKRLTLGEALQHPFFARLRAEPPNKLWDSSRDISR
Chain of Dual specificity protein kinase CLK4 (Q9HAZ1 whole entry): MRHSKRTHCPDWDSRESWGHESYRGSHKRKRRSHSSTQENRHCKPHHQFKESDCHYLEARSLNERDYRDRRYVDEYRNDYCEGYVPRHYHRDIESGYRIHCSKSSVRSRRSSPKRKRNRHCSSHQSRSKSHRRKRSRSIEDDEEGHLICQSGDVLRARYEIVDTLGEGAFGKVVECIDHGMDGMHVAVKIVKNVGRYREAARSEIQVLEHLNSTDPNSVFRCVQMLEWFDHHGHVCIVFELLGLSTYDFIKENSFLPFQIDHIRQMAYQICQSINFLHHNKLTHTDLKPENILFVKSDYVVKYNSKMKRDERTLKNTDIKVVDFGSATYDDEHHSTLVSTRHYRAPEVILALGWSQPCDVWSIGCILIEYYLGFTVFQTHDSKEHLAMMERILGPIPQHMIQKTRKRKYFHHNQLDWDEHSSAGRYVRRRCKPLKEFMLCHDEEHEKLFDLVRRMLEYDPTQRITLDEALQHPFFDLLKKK

A word on the IC50: it is the midpoint of a concentration-inhibition curve. A low value points to greater potency in that assay. With `CC(C)C[C@@H](CF)NC1=N/C(=C\c2ccc3ncsc3c2)C(=O)N1`, the IC50 was 263 nM in assay [1]; 33 nM in assay [2]; 7 nM in [3]; greater than 10 µM in assay [4]; 385 nM in assay [5]; 1390 nM in [6]. In addition, the values for the half-inhibitory concentration (IC50) in assay [7], in [8] and in [9] were 6.29 µM, greater than 10 µM and 227 nM, respectively.
For `O=C1NC(NC2CC3(CCC3)C2)=N/C1=C\c1ccc2ncsc2c1`, the IC50 in [1] is 1080 nM; in assay [2], 183 nM; in assay [3], 17 nM; in assay [4], greater than 10 µM; in assay [5], 944 nM; in [6], 212 nM. The IC50 in assay [7] was 4.57 µM; in [8] it was greater than 10 µM; in [9], 873 nM.
As to `CN1CC[C@](C)(NC2=N/C(=C\c3ccc4ncsc4c3)C(=O)N2)C1=O` (stereo in doubt), the IC50 in assay [1] is 1720 nM; in assay [2] it was 450 nM; in assay [3] it was 125 nM; in assay [4] it was greater than 10 µM; in [5], 1680 nM; in assay [6] it was 927 nM. Further, the results for the IC50 in assay [7], in assay [8] and in assay [9] were greater than 10 µM, greater than 10 µM and 1480 nM, respectively.
For `O=C1NC(NC[C@@H](O)c2ccccc2)=N/C1=C\c1ccc2ncsc2c1`, the IC50 was 16 nM in assay [1]; 13 nM in assay [3]; 181 nM in [5]; 2.6 µM in assay [7]; greater than 10 µM in [8].
For `COC(=O)[C@H](Cc1ccccc1)NC1=N/C(=C\c2ccc3ncsc3c2)C(=O)N1`, the IC50 is 216 nM in assay [1]; 28 nM in assay [3]; greater than 10 µM in assay [4]; 445 nM in assay [5]; 1850 nM in assay [6]; greater than 10 µM in assay [7]. The same compound yielded an IC50 in assay [8] greater than 10 µM.
Turning to `COC(=O)[C@@H](Cc1ccccc1)NC1=N/C(=C\c2ccc3ncsc3c2)C(=O)N1`, the IC50 in assay [1] was 8380 nM; in assay [3], 122 nM; in assay [4], greater than 10 µM; in assay [5], 6820 nM; in assay [6], greater than 10000 nM; in assay [7], greater than 10 µM. The compound also displayed an IC50 in assay [8] greater than 10 µM.
Turning to `O=C1NC(NC2CCCCC2)=N/C1=C\c1ccc2scnc2c1`, the IC50 in assay [1] was greater than 10000 nM; in assay [2], greater than 10000 nM; in assay [10], 7.16 µM; in assay [3] it was greater than 10000 nM; in [4], greater than 10 µM; in [6], greater than 10000 nM. Further, the IC50 in assay [7] and in assay [8] was greater than 10 µM each time.
As for `O=C1NC(NC[C@H](O)c2ccccc2)=N/C1=C\c1ccc2ncsc2c1`, the IC50 in assay [1] was 417 nM; in assay [3], 12 nM; in assay [5], 4320 nM; in [7], greater than 10 µM; in [8] it was greater than 10 µM.
Regarding `CC(C)(C)OC[C@H](NC1=N/C(=C\c2ccc3ncsc3c2)C(=O)N1)c1ccccc1`, the IC50 was 1720 nM in [1]; 121 nM in assay [2]; 18 nM in [3]; greater than 10 µM in assay [4]; 2100 nM in [6]; 9.97 µM in assay [7]. Further, in assay [8], the IC50 is greater than 10 µM.
Turning to `CC(C)C[C@H](CF)NC1=N/C(=C\c2ccc3ncsc3c2)C(=O)N1`, the IC50 in [1] is 433 nM; in assay [2], 27 nM; in assay [3], 9 nM; in [4] it was greater than 10 µM; in assay [5], 927 nM; in assay [6] it was 403 nM. For the same compound, the half-maximal inhibitory concentration (IC50) in [7] was 1.56 µM; in assay [8], greater than 10 µM; in [9], 657 nM.
For `CC(C)C[C@H](CO)NC1=N/C(=C\c2ccc3ncsc3c2)C(=O)N1`, the IC50 in [1] was 953 nM; in [3] it was 19 nM; in assay [4], greater than 10 µM; in assay [5] it was 764 nM; in assay [6], 484 nM; in assay [7], 2.52 µM. In addition, the IC50 was greater than 10 µM in [8] and 394 nM in assay [9].
Regarding `COC(=O)[C@@H](NC1=N/C(=C\c2ccc3ncsc3c2)C(=O)N1)C(C)C`, the IC50 in assay [1] was 328 nM; in [3] it was 16 nM; in [4], greater than 10 µM; in assay [6] it was 791 nM; in assay [7], 8.24 µM; in [8], greater than 10 µM. Moreover, the concentration for half-maximal inhibition (IC50) in [9] stood at 560 nM.
On to `CC(C)C[C@@H](CO)NC1=N/C(=C\c2ccc3ncsc3c2)C(=O)N1`, for which the IC50 was 4980 nM in [1]; 49 nM in assay [3]; greater than 10 µM in assay [4]; 6490 nM in [5]; 546 nM in assay [6]; 9.37 µM in assay [7]. The IC50 in [8] is greater than 10 µM; in [9] it was 745 nM.
`O=C1NC(NC2CCOCC2)=N/C1=C\c1ccc2ncsc2c1`: the concentration for half-maximal inhibition (IC50) in assay [3] was 24 nM; in [4] it was greater than 10 µM; in assay [5] it was 1260 nM; in assay [6], 1280 nM; in assay [7], greater than 10 µM; in assay [8] it was greater than 10 µM. In addition, in assay [9], the IC50 was 1670 nM.
As to `CN1CC[C@@](C)(NC2=N/C(=C\c3ccc4ncsc4c3)C(=O)N2)C1=O` (stereo in doubt), the half-inhibitory concentration (IC50) is 795 nM in [1]; 28 nM in assay [2]; 11 nM in [3]; greater than 10 µM in assay [4]; 1700 nM in assay [5]; 1130 nM in [6]. Also, the IC50 is 1.74 µM in [7], greater than 10 µM in assay [8] and 390 nM in assay [9].
As to `O=C1NC(Nc2cccc(C(F)(F)F)c2)=N/C1=C\c1ccc2ncsc2c1`, the IC50 was 2500 nM in assay [1]; 696 nM in assay [2]; 193 nM in assay [3]; greater than 10 µM in assay [4]; greater than 10000 nM in assay [5]; 7030 nM in assay [6]. Besides, the IC50 in [7] is greater than 10 µM; in assay [8], greater than 10 µM; in assay [9], 5730 nM.
Turning to `CC(C)[C@@H]1CC[C@@H](C)C[C@H]1NC1=N/C(=C\c2ccc3ncsc3c2)C(=O)N1`, the IC50 in [1] was 9720 nM; in assay [2] it was 211 nM; in assay [10] it was 0.147 µM; in assay [4] it was greater than 10 µM; in assay [5], 2560 nM; in assay [6] it was 2740 nM. Besides, the 50% inhibitory concentration (IC50) in assay [7] was greater than 10 µM; in [8] it was greater than 10 µM; in assay [9], 2450 nM.
Regarding `C[C@@H]1CCCC[C@H]1NC1=N/C(=C\c2ccc3ncsc3c2)C(=O)N1` (racemic), the IC50 is 549 nM in assay [1]; 114 nM in assay [2]; 17 nM in assay [3]; greater than 10 µM in [4]; 538 nM in assay [5]; 914 nM in assay [6]. The values for the IC50 in assay [7], in [8] and in assay [9] were 8.36 µM, greater than 10 µM and 531 nM, respectively.
